Where two headings read alike, the source gives them in different places. Blank lines part the entries; values can stand above or below the compound they belong to. Positions of bridges follow the written chain, without caps; N, C: chain ends. Residues, ends and D or L forms follow the SMILES beside them. No end group written: not given here.
Columns and labels:
EGF receptor [1] = target: T1, EGF receptor (Homo sapiens, UniProt P00533); assay: Summary statements on biological activity (receptor studies, parameters examined) compared with other EGF peptide analogs
Excerpt: Relative biological activity of a peptide also may reflect the activity of the peptide in immune complex kinase assays, the ability to inhibit ornithine decarboxylase activity, mitogenic stimulation activity, ability to induce EGF-r phosphorylation in vivo and action in the phosphorylation of calpactin.

EGF receptor [2] = target: T1, EGF receptor; assay: Inhibition of 125I-EGF binding to A431 cells (EGF receptor competition assay); design: endogenous in cells; host or cells: A431 epidermoid carcinoma cells (ATCC CRL 1555)
Experimental: FIG. 3--Inhibition of ^125 I-EGF binding by synthetic peptides. 1×10^5 A431 cells were plated in each well of a 24 well tissue culture plate, and allowed to grow for 48 o hours. Cells were rinsed 3 times in cold serum-free DMEM containing 0.1% BSA and 50 mM HEPES, pH 7.4, then incubated in this medium for 45 min. at 4° C. Subsequently, varying concentrations of peptide (or unlabeled EFG) was added, followed by 20,000 cpm ^125 I-EGF. After 2 hours incubation, medium is removed and cells are washed two times in PBS, then solubilized in 1 ml IN NaOH at 24° C. for 18 hours. Radioactivity in the solution is determined in a gamma counter. Peptide A--cyclic peptide with tyr at position 6; Peptide B--linear peptide with tyr at position 6; Peptide C --cyclic peptide with phe at position 6.
For this assay, cells were grown overnight in serum free media in microtiter wells, washed several times in PBS, then incubated for 2h with various concentrations of peptides. ^125 I-EGF was then added for 3o min, cells were extensively washed, and radioactivity was estimated in a gamma counter.

EGF-R = target: T2, EGF-R (Homo sapiens, UniProt P00533); assay: Kinetics of EGF-R kinase stimulation: peptide added to A431 cells, then immune complex kinase assay; assay type: cell-based; conditions: 20 ng/ml peptide, 37° C, very preliminary
T2 construct: endogenous in cells; host or cells: A431 epidermoid carcinoma cells (ATCC CRL 1555)
Experimental: FIG. 1 - Kinetics of EGF-R stimulation by synthetic peptides. To semi-confluent A431 cells (grown in 0.1% FCS), indicated concentrations of cyclic (peptide A) or linear (peptide D) peptide with tyr at position 6 was added at a concentration of 20 ng/ml for 10 min at 37° C. Cells were harvested, lysed, EFG-R was immunoprecipitated, immune complex kinase assays were performed, and proteins resolved as described in FIG. 1. […] This figure compares preliminary kinetics of kinase stimulation after the addition of the active cyclic and less-active linear peptide to A431 cells. Immune complex kinase of EGF-r after addition of various biological response modifiers to A431 cells is shown.

[3] = tested on: ornithine decarboxylase (ODC) induction by EGF; assay: Effect of peptide pretreatment on EGF-stimulated ODC induction in ME-180 cells; assay type: cell-based; conditions: 100-fold excess, 100 ng/ml peptide 30 min, then 10 ng/ml EGF 3 hours
Experimental: FIG. 4--Effect of synthetic peptide pretreatment on EGF-stimulated ODC induction in ME-180 cells. […] Cells are pelleted, sonicated in a buffer containing 25 mM NaPO4, 1mM DTT, 40 μM PLP, 0.1 mM EDTA, and centrifuged for 30 min. at 15,000 rpm at 4° C. Ornithine decarboxylase activity was determined on the supernatant by monitoring ^14 CO2 released from 0.5 μCi of I (^14 C) ornithine in a total ornithine concentration of 0.5 mM and a total volume of 0.2ml. P1--linear peptide and P2--cyclic peptide with phe at position 6; P3--linear peptide and P4--cyclic peptide with tyr at position 6.

A431 cells = assay: Mitogenic stimulation / growth of A431 cells; assay type: cell-based; conditions: for effect on A431 cell growth: serum-free medium, counted after 72 hours
Experimental: FlG. […] Mitogenic Stimulation of A431 cells. […] The peptide analog 38A is the cyclic form of the peptide with native tyrosine. Cells were harvested 72 hours later and counted with the aid of a hemacytometer.
A431 cells are a malignant cell line in which the study of EGF-r has been well characterized. […] Over the range of peptide analog concentrations tested, no inhibition of A431 cell growth was observed.

EGF receptor [4] = target: T1, EGF receptor; assay: Immune complex kinase assay of EGF-R immunoprecipitated from A431 cells, peptides added to the complexes, autophosphorylation measured; assay type: biochemical; design: endogenous in cells; host or cells: A431 epidermoid carcinoma cells (ATCC CRL 1555)
Experimental: A431 cells at approximately 70-80% confluency were lysed in a detergent-containing (RIPA) buffer, and clarified by centrifuging at 10,000×g for 10 min. […] Immune complexes were harvested after 15 min. incubation with 50 μl Pansorbin. For kinase assays, complexes were washed in RIPA buffer, then resuspended in 50 μl 1 0.1% Triton X-100 in 20 mM HEPES, pH 7.0, with the addition of 100 μm sodium vanadate. After 10 min. incubation, kinase reaction was initiated by addition of 50 μl of 20 mM HEPES containing 10 μCi γ^-32p ATP. Reaction was allowed to proceed at 25° C. for 10 min., and terminated by addition of RIPA buffer.
This assay is very sensitive, and kinase activation is among the earliest events in mitogenesis.
Immune complexes were harvested with formalin fixed staphylococcus aureus Cowan Strain (Calbiochem). These complexes were then assayed for kinase activity in an immune complex kinase assay.
Selected peptides from Example 3 were employed in the study.

[5] = Heath and Merrifield (1986); cited from earlier work

T1 sequence (P00533 25-1210): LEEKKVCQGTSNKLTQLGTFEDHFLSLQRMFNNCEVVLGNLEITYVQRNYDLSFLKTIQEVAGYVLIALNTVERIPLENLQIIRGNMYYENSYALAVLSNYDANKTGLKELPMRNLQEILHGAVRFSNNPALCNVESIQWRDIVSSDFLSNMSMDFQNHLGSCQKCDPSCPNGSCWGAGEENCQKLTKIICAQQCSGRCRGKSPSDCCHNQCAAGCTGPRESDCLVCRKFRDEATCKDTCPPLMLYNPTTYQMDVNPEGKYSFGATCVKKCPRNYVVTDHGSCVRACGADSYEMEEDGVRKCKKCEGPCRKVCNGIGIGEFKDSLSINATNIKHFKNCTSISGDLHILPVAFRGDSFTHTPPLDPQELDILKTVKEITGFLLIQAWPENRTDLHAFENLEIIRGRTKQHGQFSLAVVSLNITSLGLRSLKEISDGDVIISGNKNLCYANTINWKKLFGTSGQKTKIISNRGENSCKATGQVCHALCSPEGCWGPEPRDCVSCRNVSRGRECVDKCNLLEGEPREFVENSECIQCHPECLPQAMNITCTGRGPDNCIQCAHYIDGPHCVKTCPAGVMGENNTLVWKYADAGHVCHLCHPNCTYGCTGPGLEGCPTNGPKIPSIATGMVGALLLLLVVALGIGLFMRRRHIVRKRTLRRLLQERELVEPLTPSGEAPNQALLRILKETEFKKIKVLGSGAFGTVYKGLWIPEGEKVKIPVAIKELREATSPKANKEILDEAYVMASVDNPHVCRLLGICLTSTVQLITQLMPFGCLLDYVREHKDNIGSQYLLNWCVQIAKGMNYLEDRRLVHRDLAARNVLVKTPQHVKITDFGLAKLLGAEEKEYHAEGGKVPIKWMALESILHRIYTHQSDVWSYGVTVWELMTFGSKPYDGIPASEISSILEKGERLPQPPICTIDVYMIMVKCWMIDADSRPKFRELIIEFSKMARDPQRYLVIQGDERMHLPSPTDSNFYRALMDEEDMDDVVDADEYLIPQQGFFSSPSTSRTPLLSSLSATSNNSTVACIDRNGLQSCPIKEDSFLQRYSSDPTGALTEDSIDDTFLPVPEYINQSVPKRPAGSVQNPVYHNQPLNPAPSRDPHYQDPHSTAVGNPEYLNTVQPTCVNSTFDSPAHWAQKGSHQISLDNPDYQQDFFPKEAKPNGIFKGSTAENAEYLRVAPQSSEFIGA
T2 sequence (P00533 25-1210): as above

biological activity relative to any other EGF peptide analog so far synthesized (EGF receptor [1]): 10 fold
competition for 125I-EGF binding (in words) (EGF receptor [2]): marginal competition
Compound: CC[C@H](C)[C@H](NC(=O)[C@H](Cc1ccc(O)cc1)NC(=O)CNC(=O)[C@@H](NC(=O)[C@@H](NC(=O)[C@H](CS)NC(=O)[C@H](CC(N)=O)NC(C)=O)C(C)C)C(C)C)C(=O)NCC(=O)N[C@@H](CCC(=O)O)C(=O)N[C@@H](CCCNC(=N)N)C(=O)N[C@@H](CS)C(=O)N[C@@H](CCC(N)=O)C(=O)N[C@@H](Cc1ccc(O)cc1)C(=O)N[C@@H](CCCNC(=N)N)C(=O)N[C@@H](CC(=O)O)C(=O)N[C@@H](CC(C)C)C(=O)N[C@@H](CCCCN)C(N)=O [Peptide B] (Ac-NCVVGYIGERCQYRDLK-NH2)

time of maximum stimulation of kinase activity (EGF-R): 15 min
biological activity relative to any other EGF peptide analog so far synthesized (EGF receptor [1]; listed as cyclic form of this unsubstituted peptide): 100 fold
biological activity relative to any other EGF peptide analog so far synthesized (EGF receptor [1]; listed as cyclic peptide comprising the end of the B loop and the C loop): 100 fold
biological activity relative to any other EGF peptide analog so far synthesized (EGF receptor [1]; listed as natural tyrosine form of the cyclic peptide analog): > 100 fold
competition for EGF receptor binding relative to any previously reported peptide (EGF receptor [2]): 100 fold
concentration for 50% inhibition of 125I-EGF binding relative to that for unlabeled EGF (EGF receptor [2]): 10 fold
Compound: CC[C@H](C)[C@@H]1NC(=O)[C@H](Cc2ccc(O)cc2)NC(=O)CNC(=O)[C@H](C(C)C)NC(=O)[C@H](C(C)C)NC(=O)[C@@H](NC(=O)[C@H](CC(N)=O)NC(C)=O)CSSC[C@@H](C(=O)N[C@@H](CCC(N)=O)C(=O)N[C@@H](Cc2ccc(O)cc2)C(=O)N[C@@H](CCCNC(=N)N)C(=O)N[C@@H](CC(=O)O)C(=O)N[C@@H](CC(C)C)C(=O)N[C@@H](CCCCN)C(N)=O)NC(=O)[C@H](CCCNC(=N)N)NC(=O)[C@H](CCC(=O)O)NC(=O)CNC1=O [Peptide A] (Ac-NCVVGYIGERCQYRDLK-NH2; disulfide 2-11)
inhibition of ODC induction of EGF [3]: 50%
effect on A431 cell growth (A431 cells; 0.1 ng/ml, listed as 38A): stimulated cell growth
effect on A431 cell growth (A431 cells; 0.1 ng/ml, listed as most biologically active cyclic peptide analog): stimulated these cells
effect of higher concentrations of EGF on A431 growth in the presence of peptide (A431 cells; 10 ng/ml peptide analog mixed with higher concentrations of EGF): no longer growth-inhibited
effect on A431 cell growth (A431 cells; 10 ng/ml, listed as 38A): stimulated cell growth
effect on A431 cell growth (A431 cells; 10 ng/ml, listed as most biologically active cyclic peptide analog): stimulated these cells
effect on A431 cell growth of peptide mixed with EGF (A431 cells; peptide and EGF mixed, low concentrations): stimulation of cell growth
inhibition of A431 cell growth over the range of concentrations tested (A431 cells; whole concentration range tested): no inhibition

Compound: epidermal growth factor (NSDSECPLSHDGYCLHDGVCMYIEALDKYACNCVVGYIGERCQYRDLKWWELR; Epidermal growth factor; UniProt P01133 971-1023, looked up) [EGF, single-chain polypeptide, 53 amino acid residues, three internal disulfide bonds]
effect on A431 cell growth (A431 cells; 0.1 ng/ml): stimulated A431 cell growth
effect on A431 cell growth (A431 cells; 0.1 ng/ml, listed as Native EGF): stimulated growth
effect on A431 cell growth (A431 cells; 10 ng/ml): inhibited
effect on A431 cell growth (A431 cells; 10 ng/ml, listed as Native EGF): inhibited cell growth

stimulation of EGF-receptor kinase activity (in words) (EGF receptor [4]): no activity
Compound: CC[C@H](C)[C@H](NC(=O)[C@H](Cc1ccccc1)NC(=O)CNC(=O)[C@@H](NC(=O)[C@@H](NC(=O)[C@H](CS)NC(=O)[C@H](CC(N)=O)NC(C)=O)C(C)C)C(C)C)C(=O)NCC(=O)N[C@@H](CCC(=O)O)C(=O)N[C@@H](CCCNC(=N)N)C(=O)N[C@@H](CS)C(=O)N[C@@H](CCC(N)=O)C(=O)N[C@@H](Cc1ccc(O)cc1)C(=O)N[C@@H](CCCNC(=N)N)C(=O)N[C@@H](CC(=O)O)C(=O)N[C@@H](CC(C)C)C(=O)N[C@@H](CCCCN)C(N)=O [Peptide P1] (Ac-NCVVGFIGERCQYRDLK-NH2)

stimulation of kinase activity (EGF receptor [4]; 30 ng/ml peptide): approximately 2 fold
competition for 125I-EGF binding (in words) (EGF receptor [2]): marginal competition
Compound: CC[C@H](C)[C@@H]1NC(=O)[C@H](Cc2ccccc2)NC(=O)CNC(=O)[C@H](C(C)C)NC(=O)[C@H](C(C)C)NC(=O)[C@@H](NC(=O)[C@H](CC(N)=O)NC(C)=O)CSSC[C@@H](C(=O)N[C@@H](CCC(N)=O)C(=O)N[C@@H](Cc2ccc(O)cc2)C(=O)N[C@@H](CCCNC(=N)N)C(=O)N[C@@H](CC(=O)O)C(=O)N[C@@H](CC(C)C)C(=O)N[C@@H](CCCCN)C(N)=O)NC(=O)[C@H](CCCNC(=N)N)NC(=O)[C@H](CCC(=O)O)NC(=O)CNC1=O [Peptide C] (Ac-NCVVGFIGERCQYRDLK-NH2; disulfide 2-11)

Compound: isolated "B" loop: synthetic peptide of the isolated B loop of EGF (residues 20-31), Heath and Merrifield (CMYIEALDKYAC; ends and bridges not checked; cysteine pairing not given here; UniProt P01133 990-1001, looked up, fragment)
activity relative to EGF [5]: 0.001%
